{"source": "patent US20100076037A1", "about": "“Methods of Treating Neuropathic Pain with Agonists of PPAR-gamma” (priority 2006, published 2010)", "origin": "cited, not measured here", "key": {"[1]": {"settings": "cited from earlier work"}, "rats": {"tested_on": "rats", "settings": "intrathecal; cited from earlier work"}, "PPARγ": {"molecular_target": "PPARγ (Homo sapiens, UniProt P37231)", "sequence (P37231 whole entry, species assumed)": "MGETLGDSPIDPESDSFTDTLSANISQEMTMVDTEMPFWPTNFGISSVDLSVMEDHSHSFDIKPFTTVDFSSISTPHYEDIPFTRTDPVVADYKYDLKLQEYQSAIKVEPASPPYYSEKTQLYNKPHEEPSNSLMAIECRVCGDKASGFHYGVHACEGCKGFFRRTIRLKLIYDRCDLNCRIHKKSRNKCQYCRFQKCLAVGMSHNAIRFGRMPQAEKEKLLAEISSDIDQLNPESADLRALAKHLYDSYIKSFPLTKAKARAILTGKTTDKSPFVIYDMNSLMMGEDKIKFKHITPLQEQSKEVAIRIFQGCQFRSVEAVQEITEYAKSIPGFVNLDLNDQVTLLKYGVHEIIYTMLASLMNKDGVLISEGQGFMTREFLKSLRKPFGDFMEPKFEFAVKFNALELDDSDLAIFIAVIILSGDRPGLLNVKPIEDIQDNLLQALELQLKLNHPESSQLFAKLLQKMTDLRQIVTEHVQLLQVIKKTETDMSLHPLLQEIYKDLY", "settings": "ECV304 cell line; cited from earlier work"}, "[2]": {"settings": "3 or 30 mg/kg; cited from earlier work"}, "[3]": {"tested_on": "rats subjected to spinal cord injury", "settings": "given before pioglitazone; cited from earlier work"}, "PPARalpha [4]": {"molecular_target": "T1, PPARalpha (Homo sapiens, UniProt Q07869)", "T1 sequence (Q07869 1-468)": "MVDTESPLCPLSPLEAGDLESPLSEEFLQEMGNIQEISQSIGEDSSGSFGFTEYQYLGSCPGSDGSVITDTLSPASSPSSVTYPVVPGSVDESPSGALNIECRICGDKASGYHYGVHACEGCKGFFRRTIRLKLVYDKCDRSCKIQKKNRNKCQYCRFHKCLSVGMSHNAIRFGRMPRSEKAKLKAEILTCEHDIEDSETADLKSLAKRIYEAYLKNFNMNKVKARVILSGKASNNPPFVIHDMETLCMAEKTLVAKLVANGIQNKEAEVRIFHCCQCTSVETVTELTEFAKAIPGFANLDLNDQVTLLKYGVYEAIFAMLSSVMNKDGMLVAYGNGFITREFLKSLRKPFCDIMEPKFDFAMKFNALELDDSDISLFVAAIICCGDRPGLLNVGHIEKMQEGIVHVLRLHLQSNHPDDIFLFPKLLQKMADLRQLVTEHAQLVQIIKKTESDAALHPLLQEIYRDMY", "settings": "first value of the pair given as α/γ; read-out: EC50 for PPARalpha agonism; cited from earlier work"}, "mouse (m)PPARgamma": {"molecular_target": "T2, mouse (m)PPARgamma (Mus musculus, UniProt P37238)", "T2 construct": "expressed in transfected cells; host or cells: U2 OS", "T2 sequence (P37238 whole entry)": "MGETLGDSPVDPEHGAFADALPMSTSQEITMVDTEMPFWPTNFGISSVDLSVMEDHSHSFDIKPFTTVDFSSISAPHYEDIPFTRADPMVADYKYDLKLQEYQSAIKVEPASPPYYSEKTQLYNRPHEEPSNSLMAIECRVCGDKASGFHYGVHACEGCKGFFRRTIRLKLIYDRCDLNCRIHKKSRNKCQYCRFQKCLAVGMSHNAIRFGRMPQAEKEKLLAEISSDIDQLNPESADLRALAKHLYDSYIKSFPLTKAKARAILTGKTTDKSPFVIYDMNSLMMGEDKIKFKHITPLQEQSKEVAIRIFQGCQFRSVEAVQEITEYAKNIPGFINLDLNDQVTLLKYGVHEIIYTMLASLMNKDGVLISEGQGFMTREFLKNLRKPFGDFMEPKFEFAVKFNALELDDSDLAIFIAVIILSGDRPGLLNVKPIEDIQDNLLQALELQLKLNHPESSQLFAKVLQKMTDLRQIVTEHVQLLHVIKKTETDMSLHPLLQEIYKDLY", "settings": "U2 OS cells, mPPARgamma, cited from earlier work"}, "PPARalpha [5]": {"molecular_target": "T1, PPARalpha", "settings": "U2 OS cells; cited from earlier work"}, "P-glycoprotein": {"molecular_target": "T3, P-glycoprotein (Homo sapiens, UniProt P08183)", "T3 construct": "host or cells: Caco2 and MDCK-MDR1 monolayers (tie to the P-gp statement is grammatically loose)", "T3 sequence (P08183 whole entry)": "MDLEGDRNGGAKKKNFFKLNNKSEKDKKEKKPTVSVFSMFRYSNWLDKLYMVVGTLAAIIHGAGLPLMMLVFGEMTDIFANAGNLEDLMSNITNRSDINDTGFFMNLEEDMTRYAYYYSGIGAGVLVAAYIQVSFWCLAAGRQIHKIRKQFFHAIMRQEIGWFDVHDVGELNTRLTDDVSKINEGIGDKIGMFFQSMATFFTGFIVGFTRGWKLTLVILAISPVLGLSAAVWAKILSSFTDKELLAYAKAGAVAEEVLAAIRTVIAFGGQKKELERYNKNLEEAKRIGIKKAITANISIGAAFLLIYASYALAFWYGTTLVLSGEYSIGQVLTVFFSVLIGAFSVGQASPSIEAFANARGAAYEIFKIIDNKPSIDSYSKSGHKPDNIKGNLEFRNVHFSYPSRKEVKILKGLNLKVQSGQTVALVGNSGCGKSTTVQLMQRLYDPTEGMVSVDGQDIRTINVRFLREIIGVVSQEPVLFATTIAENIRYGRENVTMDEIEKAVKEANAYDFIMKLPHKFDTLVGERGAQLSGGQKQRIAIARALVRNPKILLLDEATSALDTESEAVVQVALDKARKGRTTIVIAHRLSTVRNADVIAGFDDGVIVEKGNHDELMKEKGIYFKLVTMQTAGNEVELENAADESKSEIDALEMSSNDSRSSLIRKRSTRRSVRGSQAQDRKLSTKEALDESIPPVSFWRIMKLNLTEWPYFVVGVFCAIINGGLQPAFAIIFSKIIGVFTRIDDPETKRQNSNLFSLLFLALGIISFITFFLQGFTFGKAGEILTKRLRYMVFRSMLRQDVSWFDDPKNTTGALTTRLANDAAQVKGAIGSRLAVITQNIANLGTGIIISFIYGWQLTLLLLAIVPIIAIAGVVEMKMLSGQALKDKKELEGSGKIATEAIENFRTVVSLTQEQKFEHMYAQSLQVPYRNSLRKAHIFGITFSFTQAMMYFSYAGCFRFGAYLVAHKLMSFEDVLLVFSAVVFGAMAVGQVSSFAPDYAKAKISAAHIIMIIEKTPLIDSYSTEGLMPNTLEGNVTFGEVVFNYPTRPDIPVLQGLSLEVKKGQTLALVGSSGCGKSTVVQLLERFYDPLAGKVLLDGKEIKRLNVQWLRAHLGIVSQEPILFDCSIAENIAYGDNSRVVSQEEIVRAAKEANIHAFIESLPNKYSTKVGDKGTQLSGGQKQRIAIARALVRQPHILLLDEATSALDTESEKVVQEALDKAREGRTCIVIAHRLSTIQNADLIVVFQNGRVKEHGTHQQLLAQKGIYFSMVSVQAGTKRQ", "settings": "cited from earlier work"}, "[6]": {"tested_on": "multidrug resistance protein 2", "settings": "Caco-2; cited from earlier work"}, "mPPARalpha": {"molecular_target": "mPPARalpha (Mus musculus, UniProt P23204)", "sequence (P23204 whole entry)": "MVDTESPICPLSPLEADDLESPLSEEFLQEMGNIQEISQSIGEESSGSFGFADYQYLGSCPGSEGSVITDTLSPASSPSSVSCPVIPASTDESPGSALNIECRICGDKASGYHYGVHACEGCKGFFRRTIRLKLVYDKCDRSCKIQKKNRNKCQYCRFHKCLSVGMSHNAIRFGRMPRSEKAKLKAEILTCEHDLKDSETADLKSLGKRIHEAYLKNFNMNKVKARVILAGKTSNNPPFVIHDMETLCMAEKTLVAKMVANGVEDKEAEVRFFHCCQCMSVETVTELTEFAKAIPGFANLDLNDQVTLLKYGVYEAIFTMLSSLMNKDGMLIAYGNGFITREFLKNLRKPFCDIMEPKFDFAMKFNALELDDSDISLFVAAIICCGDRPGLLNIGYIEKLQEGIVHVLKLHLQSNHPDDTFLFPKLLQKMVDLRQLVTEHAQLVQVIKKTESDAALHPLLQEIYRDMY", "settings": "read-out: EC50 reporter gene assay, U2 OS cells; cited from earlier work"}, "diabetic patients": {"tested_on": "diabetic patients", "settings": "human, in vivo; cited from earlier work"}}, "note": "pEC50: −log10 of the molar value.", "data": [{"compound": "CCCCC/C=C/C=C1/C(=O)C=C[C@@H]1C/C=C\\CCCC(=O)O", "note": "[15dPGJ2]", "values": [{"measurement": "mechanical allodynia (von Frey)", "setting": "[1]; intrathecal, 7 days post-SNI", "value": "dose-dependently reduced"}, {"measurement": "pain behavior", "setting": "rats", "value": "reduction in pain behavior"}]}, {"compound": "CC(C)(c1ccc(OCC2CO2)cc1)c1ccc(OCC2CO2)cc1", "note": "(stereo not drawn) [BADGE, Bisphenol A diglycidyl ether]", "values": [{"measurement": "effect on the observed anti-allodynic effects of rosiglitazone and 15dPGJ2", "setting": "[1]; in vivo", "value": "reversed"}, {"measurement": "PPARγ activity", "setting": "PPARγ", "value": "has PPARγ agonist activity"}]}, {"compound": "O=C(Nc1ccccc1)c1cc([N+](=O)[O-])ccc1Cl", "note": "[GW9662, 2-chloro-5-nitro-N-phenylbenzamide]", "values": [{"measurement": "threshold (in g)", "setting": "[2]", "value": "increased"}, {"measurement": "effect of pretreatment on pioglitazone-induced motor function recovery", "setting": "[3]", "value": "completely abolished"}]}, {"compound": "Cc1oc(-c2ccccc2)nc1CCOc1ccc(CC2C(=O)NOC2=O)cc1", "note": "(stereo not drawn) [JTT-501]", "values": [{"measurement": "pEC50", "setting": "PPARalpha [4]", "value": 6.40}]}, {"compound": "CCO[C@@H](Cc1ccc(OCCN2c3ccccc3Oc3ccccc32)cc1)C(=O)O", "note": "[NNC-61-0029]", "values": [{"measurement": "pEC50", "setting": "PPARalpha [4]", "value": 6.22}]}, {"compound": "Cc1cccc(Nc2cc(Cl)nc(SCC(=O)O)n2)c1C", "note": "[WY-14643]", "values": [{"measurement": "EC50 reporter gene assay", "setting": "mouse (m)PPARgamma", "value": "no activity"}, {"measurement": "EC50 reporter gene assay", "setting": "PPARalpha [5]", "value": "no activity"}]}, {"compound": "CCOC(Cc1ccc(OCCc2ccc(OS(C)(=O)=O)cc2)cc1)C(=O)OC1OC(C(=O)O)C(O)C(O)C1O", "note": "(stereo not drawn) [acylglucuronide metabolite]", "values": [{"measurement": "substrate of P-glycoprotein", "setting": "P-glycoprotein", "value": "not substrates of P-glycoprotein"}, {"measurement": "transport in Caco2 and MDCK-MDR1 monolayers", "setting": "[6]", "value": "apparently transported by multidrug resistance protein 2"}]}, {"compound": "CC(C)(Oc1ccc(CCNC(=O)c2ccc(Cl)cc2)cc1)C(=O)O", "note": "[bezafibrate]", "values": [{"measurement": "pEC50", "setting": "mouse (m)PPARgamma; read-out: EC50 reporter gene assay", "value": 4.64}, {"measurement": "pEC50", "setting": "mPPARalpha", "value": 4.62}]}, {"compound": "CCc1ccc(CCOc2ccc(CC3SC(=O)NC3=O)cc2)nc1", "note": "(stereo not drawn) [pioglitazone]", "values": [{"measurement": "rates of edema", "setting": "diabetic patients", "value": 4.2, "unit": "%"}]}]}
